From patent US20080032229A1, “BOTTOM ANTIREFLECTIVE COATINGS” (priority 2003, published 2008)
Where two headings read alike, the source gives them in different places.

Key:
[1] = Solubility of bases in propylene glycol monomethyl ether acetate (shaken overnight, visual inspection); type: physicochemical; conditions: for Solubility, 0.2 wt. % in PGMEA: 0.2 wt. % solution in propylene glycol monomethyl ether acetate, shaken ~20 hours at room temperature; for Solubility, 0.2 wt. % in PGMEA / Solubility, 0.1 wt. % in PGMEA: visual inspection; for Solubility, 0.1 wt. % in PGMEA: diluted to 0.10 wt. % in propylene glycol monomethyl ether acetate; for Solubility in the solvent of the photoresist (propylene glycol monomethyl ether acetate): concentration not given
Protocol: Several bases were evaluated for solubility in propylene glycol monomethyl ether acetate, the most commonly used solvent in photoresist compositions. A 0.2 wt. % solution of each base was made with propylene glycol monomethyl ether acetate in glass vials. The vials were then placed on a shaker and allowed to shake overnight (˜20 hours) at room temperature. The vials were then visually inspected. If the vials were clear without any haze, cloudiness or solids or crystals at the bottom of the vial, then the base was considered soluble in propylene glycol monomethyl ether acetate. If the vials had haze, cloudiness or solids or crystals at the bottom of the vial, the base was considered not soluble in propylene glycol monomethyl ether acetate. For those vials which contained base at 0.2 wt. % and were considered not soluble, additional propylene glycol monomethyl ether acetate was added to dilute the solution to 0.15 wt. %, or 0.10 wt. %. The diluted vials were then evaluated as discussed above. No further dilutions were made beyond 0.10 wt. %.

[2] = Solubility of bases in the antireflective coating solvent 4-hydroxy-4-methyl-2-pentanone; type: physicochemical
Description: For this experiment, base A is aminophylline, which is considered an insoluble base in the solvent of the photoresist (in this experiment, propylene glycol monomethyl ether acetate) but soluble in the solvent of the antireflective coating (in this experiment, 4-hydroxy-4-methyl-2-pentanone); base B is tridodecylamine, which is soluble in both the solvent of the photoresist (in this experiment, propylene glycol monomethyl ether acetate) and the solvent of the antireflective coating (in this experiment, 4-hydroxy-4-methyl-2-pentanone). The bases were evaluated alone or as mixtures in the antireflective coatings. The antireflective coatings were prepared using a co-polymer of benzyl methacrylate—mevalonic lactone methacrylate. The photoacid generator (PAG) was triphenylsulfonium nonaflate, and the aforementioned base(s) and 4-hydroxy-4-methyl-2-pentanone as the solvent completed the antireflective coating formulations. The PAG content was kept at 1.7 wt. % of total solids of the antireflective coating formulations and the antireflective coating formulations were 1.65% total solids.

SMILES | Solubility, 0.2 wt. % in PGMEA [1] | Solubility, 0.1 wt. % in PGMEA [1] | Solubility in the solvent of the antireflective coating (4-hydroxy-4-methyl-2-pentanone) [2] | Solubility in the solvent of the antireflective coating (4-hydroxy-4-methyl-2-pentanone) ([2]; concentration not given) | Solubility in the solvent of the photoresist (propylene glycol monomethyl ether acetate) [1]
Cn1c(=O)c2[nH]c(Cl)nc2n(C)c1=O [8-Chlorotheophyllline] | Not soluble | Not soluble |  |  | 
Cn1c(=O)c2[nH]cnc2n(C)c1=O [Aminophylline, reference compound] | Not soluble | Not soluble |  | soluble | insoluble
c1ncc2[nH]cnc2n1 [Purine] | Not soluble | Not soluble |  |  | 
Cn1c(=O)c2[nH]cnc2n(C)c1=O [Theophylline, reference compound] | Not soluble | Soluble |  |  | 
CCCCCCCCCCCCN(CCCCCCCCCCCC)CCCCCCCCCCCC [tridodecylamine, reference compound] |  |  | soluble |  | soluble

Now from value to compound, other results behind:

Solubility, 0.2 wt. % in PGMEA [1] | Solubility, 0.1 wt. % in PGMEA [1] | Solubility in the solvent of the antireflective coating (4-hydroxy-4-methyl-2-pentanone) [2] | SMILES | Solubility in the solvent of the antireflective coating (4-hydroxy-4-methyl-2-pentanone) ([2]; concentration not given) | Solubility in the solvent of the photoresist (propylene glycol monomethyl ether acetate) [1]
Not soluble | Not soluble |  | Nc1nc(N)c2[nH]cnc2n1 [2,6-Diaminopurine] |  | 
Not soluble | Soluble |  | CN(C)c1ncnc2nc[nH]c12 [6-(Dimethylamino)purine] |  | 
Not soluble | Not soluble |  | Nc1ncnc2nc[nH]c12 [Adenine] |  | 
Not soluble | Not soluble |  | Nc1nc2nc[nH]c2c(=O)[nH]1 [Guanine] |  | 
